Test results taken from patent publication US6803224B2, “Regulated expression of cloned genes using a cascade genetic circuit” (priority 2000, dated 2004).
Read-outs that look alike come from different tables or passages of the source.

Tests used:
nahR/Psal = format: cell-based, E. coli; details: for Induction ratio of β-galactosidase activity: nahR/Psal, E. coli CC118RSL9, 5 hours at 30° C.
Excerpt: (§1) This example illustrates how the effector molecules NahR and XylS2 can synergistically amplify gene expression when integrated properly into a cascade genetic circuit.

xylS2/Pm = assay: β-galactosidase induction, simple circuit xylS2/Pm::lacZ in chromosome (E. coli CC118FH26); format: cell-based; details: E. coli CC118FH26, 5 hours at 30° C.
Excerpt: as §1

nahR/Psal::xylS2/Pm [1] = details: CC4S2PMT97, salicylate 2 mM, 30° C., 5 hours
Method: The pool of bacteria growing on streptomycin 25 mg/l and rifampicin 50 mg/l was used as recipient in a mating with donor strain E. coli S17-1(λpir) (pCNB4-S2). To select transconjugants, the mating product was plated onto LB plates with rifampicin, streptomycin and kanamycin (25 mg/l). […] Cultures from colonies of the transconjugant were grown overnight in LB medium (yeast extract 5 g/l, tryptone 10 g/l, 5 g/l NaCl) at 37° C. by shaking. Cultures were diluted 1:100 in fresh media without antibiotic selection and incubated for 2 hours at 37° C.

[2] = system: nahR/Psal::xylS2/Pm::trp'::'lacZ; details: Salicylate 2 mM, 30° C., 5 hours, depending on the transconjugant
[3] = system: nahR4/Psal::xylS/Pm::trp'::'lacZ
nahR/Psal::xylS2/Pm [4] = format: cell-based, E. coli
Excerpt: as §1

[5] = system: xylS2/Pm::lacZ (pCNB2-lacZ); details: CC118λpir pCNB2-lacZ, salicylate 2 mM, 5 hours
[6] = system: xylS2/Pm::nahR and Psal::trp'::'lacZ; details: E. coli 2NRSL7, salicylate 2 mM
[7] = system: nahR/Psal::lacZ (pCNB4-lacZ); details: CC118λpir pCNB4-lacZ, salicylate 2 mM, 5 hours
Pm::lacZ (pTSPm-lacZ) = details: CC118λpir pTSPm-lacZ, salicylate 2 mM, 30° C., 5 hours

Structure (SMILES)	Induction ratio of β-galactosidase activity (nahR/Psal)	Induction ratio of β-galactosidase activity (xylS2/Pm)	other results
Cc1cccc(C(=O)O)c1 [3-Methyl-benzoate]	11	63	
COc1ccc(O)c(C(=O)O)c1 [5-Metoxi-salicylate]	3	46	
O=C(O)c1cc(Cl)ccc1O [5-Chloro-salicylate]	32	3	
Cc1ccc(C(=O)O)c(O)c1 [4-Methyl-salicylate]	21	7	
O=C(O)c1cc(Cl)cc(Cl)c1O [3,5-Dichloro-salicylate]	18	1	
Cc1cccc(C(=O)O)c1O [3-Methyl-salicylate]	17	46	
COc1ccccc1C(=O)O [2-Metoxi-benzoate]	33	10	
Nc1ccccc1C(=O)O [Antranilate]	22	11	
Cc1ccc(O)c(C(=O)O)c1 [5-Methyl-salicylate]	30	19	
O=C(O)c1ccccc1O [Salicylate]	24	13	β-gal activity (nahR/Psal::xylS2/Pm [1]): 39143 Miller Units; gene expression capacity [2]: 150 to 400 times; β-galactosidase production when induced [2]: 25,000-50,000 MU; XylS accumulation (western blot) ([3]; P. putida cascade cultures induced with salicylate): Increased accumulation of XylS; β-galactosidase produced in the presence of salicylate relative to benzoate ([3]; P. putida cascade transconjugants, 2 mM): about 4 fold; induction ratio as part of maximal activity (nahR/Psal::xylS2/Pm [4]; 0.5 mM of salicylate): 90%; β-gal activity (nahR/Psal::xylS2/Pm [4]; CC4S2PMT32, salicylate 2 mM, 30° C., 5 hours): 30383 Miller Units; time at which accumulation of β-galactosidase reached maximum value (nahR/Psal::xylS2/Pm [4]; Salicylate 2 mM added at OD600=0.2): 5 h; β-galactosidase production, share of total protein (nahR/Psal; the simple system, SDS-PAGE and densitometry): less than 0.6%; β-gal activity ([5]; 30° C.): 67002 Miller Units; % β-gal/total proteins ([5]; SDS-PAGE densitometry): 13%; capacity of the reverse-coupled system (induction) [6]: 24 fold; β-gal activity ([7]; 30° C.): 17952 Miller Units; % β-gal/total proteins ([7]; SDS-PAGE densitometry): 3.9%; β-gal activity (Pm::lacZ (pTSPm-lacZ)): 1358 Miller Units
CC(=O)Oc1ccccc1C(=O)O [2-Acetyl salicylate]	40	10	
O=C(O)c1ccc(Cl)cc1O [4-Chloro-salicylate]	33	1	
